# Where two headings read alike, the source gives them in different places.
# System: BV-2 (mouse microglia) cells
# Test: progranulin secretion from BV-2 cells, mouse progranulin ELISA of conditioned media
# Assay type: cell-based
# Details: BV-2 cells, 16 hours incubation, 8-point curves starting at 10 μM
# Procedure: BV-2 cells are split the day before plating into a 96 well plate format at approximately 80%. Cells should be plated the day before and allowed for 1 hour attachment period and for 16 hour incubation. […] Standard ELISA kits to measure PGRN are available from vendors such as Adipogen, R&D, and Biovendor.
# Compound potency was determined by measuring progranulin secretion from BV-2 (mouse microglia) cells. BV-2 cells were grown in RPMI with 2 mM L-glutamine supplemented with 10% fetal bovine serum. On the day of the assay, cells were plated in 96-well plates at a density of 30,000 cells/well in RPMI (Roswell Park Memorial Institute media)/L-glutamine supplemented with 2% Fetal clone serum II (plating media) and left to adhere for 1 hour. Following attachment to the plate, media was replaced with treatment (8-point curves in half-log dilutions starting at 10 μM) in plating media and incubated for 16 hours. Secreted progranulin was measured from a 1:10 dilution of the conditioned media using the R&D Systems mouse progranulin ELISA kit (cat #DY2557) and following the manufacturer's instructions.
# [1] = assay run v2 (same protocol, different assay), read-out: PRGN v2 (EC50, progranulin secretion)
# [2] = Mus musculus, BV-2, 16 h, assay run v1, read-out: PRGN v1 (EC50, progranulin secretion)
# [3] = assay run v1, read-out: PRGN v1 (EC50, progranulin secretion)
# [4] = Mus musculus, BV-2, 16 h, assay run v2 (same protocol, different assay), read-out: PRGN v2 (EC50, progranulin secretion)
# [5] = Mus musculus, assay run v1, read-out: PRGN v1 (EC50, progranulin secretion)
# [6] = Mus musculus, assay run v2 (same protocol, different assay), read-out: PRGN v2 (EC50, progranulin secretion)
compound,measurement,setting,value
COc1ccc([C@H]2c3ccccc3CCN2C(=O)O[C@@H]2CN3CCC2CC3)cc1F [Compound 1038],EC50,[1],> 10 µM
O=C(N[C@@H]1CN2CCC1CC2)N1CCc2ccccc2[C@H]1c1ccc(OCc2ccccc2)cc1 [Compound 1092],EC50,[2],2.21 µM
O=C1CCC([C@@H]2c3ccccc3CCN2C(=O)O[C@@H]2CN3CCC2CC3)CN1 (stereo partly drawn) [Compound 1027],EC50,[3],9.53 µM
same,EC50,[1],> 10 µM
O=C(N[C@@H]1CN2CCC1CC2)N1CCc2ccccc2[C@H]1c1ccn2ccnc2c1 [Compound 1106],EC50,[2],> 10 µM
same,EC50,[4],> 10 µM
"CS(=O)(=O)c1ccc([C@H]2c3ccccc3CCN2C(=O)N[C@@H]2CN3CCC2CC3)cc1 [Compound 1072, (S)-1-(4-(methylsulfonyl)phenyl)-N—((S)-quinuclidin-3-yl)-3,4-dihydroisoquinoline-2(1H)-carboxamide]",EC50,[2],> 4.41 µM
O=C(N[C@@H]1CN2CCC1CC2)N1CCc2ccccc2[C@@H]1c1cnc2nccn2c1 [Compound 1117],EC50,[2],> 10 µM
same,EC50,[4],> 10 µM
O=C(N[C@@H]1CN2CCC1CC2)N1CCc2cccnc2[C@H]1c1ccc(Cl)cc1 [Compound 1122],EC50,[2],3.13 µM
same,EC50,[4],> 10 µM
O=C(O[C@@H]1CN2CCC1CC2)N1CCc2ccccc2[C@@H]1c1ccnc(O)c1 [Compound 1002],EC50,[3],> 10 µM
O=C(N[C@@H]1CN2CCC1CC2)N1CCc2ccccc2[C@@H]1c1ccc2cccn2c1 [Compound 1108],EC50,[3],5.63 µM
same,EC50,[1],> 10 µM
O=C(O[C@@H]1CN2CCC1CC2)N1CCc2ccccc2[C@H]1c1ccc(F)cc1 [Compound 1005],EC50,[5],> 7 µM
CC1(C)C(OC(=O)N2CCc3ccccc3[C@H]2c2cccc(F)c2F)C2CCN1CC2 (stereo partly drawn) [Compound 1149],EC50,[6],0.43 µM
O=C(N[C@@H]1CN2CCC1CC2)N1CCc2ccccc2[C@@H]1c1ccc(F)cc1 [Compound 1070],EC50,[5],0.18 µM
same,EC50,[6],0.26 µM
O=C(N[C@@H]1CN2CCC1CC2)N1CCc2ccccc2[C@H]1c1ccc2cncn2c1 [Compound 1112],EC50,[2],> 10 µM
same,EC50,[4],> 10 µM
Cc1nc2cc([C@H]3c4ccccc4CCN3C(=O)O[C@@H]3CN4CCC3CC4)ccc2s1 [Compound 1132],EC50,[6],> 10 µM
O=C(O[C@@H]1CN2CCC1CC2)N1CCc2ccccc2[C@H]1c1cccc(F)c1F [Compound 1014],EC50,[3],> 10 µM
same,EC50,[1],4.3 µM
O=C(O[C@@H]1CN2CCC1CC2)N1CCc2ccccc2[C@@H]1c1ccc(F)cc1F [Compound 1012],EC50,[3],0.44 µM
same,EC50,[1],0.25 µM
COc1ccc([C@@H]2c3ccccc3CCN2C(=O)C[C@@H]2CN3CCC2CC3)cc1 [Compound 1057],EC50,[2],4.2 µM
CC1(C)[C@H](OC(=O)N2CCc3ccccc3[C@@H]2c2ccc(F)cc2)C2CCN1CC2 [Compound 1145],EC50,[1],0.57 µM
O=C(O[C@@H]1CN2CCC1CC2)N1CCc2ccccc2[C@H]1c1ccc2scnc2c1 [Compound 1035],EC50,[3],> 10 µM
same,EC50,[1],> 10 µM
O=C(O[C@@H]1CN2CCC1CC2)N1CCc2ccccc2[C@@H]1c1ccc(Cl)cc1 [Compound 1046],EC50,[5],0.34 µM
O=C(O[C@@H]1CN2CCC1CC2)N1CCc2ccccc2[C@H]1c1ccc(-n2ccnc2)cc1 [Compound 1007],EC50,[5],> 10 µM
CC1(C)[C@@H](NC(=O)N2CCc3ccccc3[C@@H]2c2ccc(Cl)cc2)C2CCN1CC2 [Compound 1050],EC50,[2],0.36 µM
O=C(N[C@@H]1CN2CCC1CC2)N1CCc2ccccc2[C@H]1c1ccc(Cl)cc1 [Compound 1082],EC50,[2],1.6 µM
O=C(O[C@@H]1CN2CCC1CC2)N1CCc2ccccc2[C@@H]1c1ccc(C(F)(F)F)cc1 [Compound 1126],EC50,[6],8.6 µM
O=C(N[C@@H]1CN2CCC1CC2)N1CCc2ccccc2[C@@H]1c1ccc(-n2cnnc2)cc1 [Compound 1113],EC50,[2],3.59 µM
same,EC50,[4],> 10 µM
COc1ccc([C@H]2c3ccccc3CCN2C(=O)C[C@@H]2CN3CCC2CC3)cc1F [Compound 1060],EC50,[2],> 10 µM
same,EC50,[4],2.07 µM
O=C(O[C@@H]1CN2CCC1CC2)N1CCc2ccccc2[C@H]1c1cc2ccccc2s1 [Compound 1037],EC50,[3],> 3.16 µM
same,EC50,[1],> 10 µM
CN(C(=O)N1CCc2ccccc2[C@@H]1c1ccc(F)cc1)[C@H]1CN2CCC1CC2 [Compound 1131],EC50,[4],> 10 µM
O=C(O[C@@H]1CN2CCC1CC2)N1CCc2ccccc2[C@H]1c1ccc(-n2cncn2)cc1 [Compound 1019],EC50,[5],> 10 µM
same,EC50,[6],> 10 µM
O=C1CCCN1c1ccc([C@@H]2c3ccccc3CCN2C(=O)C[C@@H]2CN3CCC2CC3)cc1 [Compound 1067],EC50,[2],> 10 µM
same,EC50,[4],> 10 µM
O=C(O[C@@H]1CN2CCC1CC2)N1CCc2ccccc2[C@@H]1c1ccc(F)c(F)c1 [Compound 1010],EC50,[5],0.92 µM
same,EC50,[6],2.03 µM
O=C(O[C@@H]1CN2CCC1CC2)N1CCc2ccccc2[C@H]1c1ccc(-n2cnnc2)cc1 [Compound 1043],EC50,[6],> 10 µM
O=C(N[C@@H]1CN2CCC1CC2)N1CCc2ccccc2[C@H]1c1ccncc1 [Compound 1078],EC50,[2],> 10 µM
COCCOCCOCCNC(=O)c1ccc([C@@H]2c3ccccc3CCN2C(=O)O[C@@H]2CN3CCC2CC3)cc1 [Compound 1147],EC50,[6],> 10 µM
O=C(N[C@@H]1CN2CCC1CC2)N1CCc2ccccc2[C@@H]1c1ccc2cccn2c1 [Compound 1107],EC50,[1],3.7 µM
same,EC50,[2],5.43 µM
Cc1nc2ccc([C@@H]3c4ccccc4CCN3C(=O)O[C@@H]3CN4CCC3CC4)cc2o1 [Compound 1139],EC50,[6],> 10 µM
"O=C(Cc1ccccc1)N1CCc2ccccc2[C@@H]1c1ccc(F)cc1 [Compound 1125, (S)-1-(1-(4-fluorophenyl)-3,4-dihydroisoquinolin-2(1H)-yl)-2-phenylethanone]",EC50,[4],> 10 µM
O=C(O[C@@H]1CN2CCC1CC2)N1CCc2ccccc2[C@@H]1c1cc(F)cc(F)c1 [Compound 1040],EC50,[1],> 10 µM
O=C(C[C@@H]1CN2CCC1CC2)N1CCc2ccccc2[C@@H]1c1ccc(F)cc1F [Compound 1053],EC50,[2],0.96 µM
O=C(N[C@@H]1CN2CCC1CC2)N1CCc2ccccc2[C@@H]1c1ccn2ccnc2c1 [Compound 1105],EC50,[2],> 10 µM
same,EC50,[4],> 10 µM
O=C(N[C@@H]1CN2CCC1CC2)N1CCc2ccccc2[C@H]1c1ccc(F)c(F)c1 [Compound 1076],EC50,[2],> 10 µM
O=C1CCCN1c1ccc([C@@H]2c3ccccc3CCN2C(=O)O[C@@H]2CN3CCC2CC3)cc1 [Compound 1017],EC50,[5],> 10 µM
same,EC50,[6],> 10 µM
CN(C(=O)N1CCc2ccccc2[C@@H]1c1ccc(F)cc1)[C@@H]1CN2CCC1CC2 [Compound 1130],EC50,[4],1.03 µM
CC1([C@@H]2c3ccccc3CCN2C(=O)N[C@@H]2CN3CCC2CC3)COC1 [Compound 1090],EC50,[2],> 10 µM
O=C(O[C@@H]1CN2CCC1CC2)N1CCc2ccccc2[C@@H]1c1cccc(F)c1 [Compound 1020],EC50,[3],1.37 µM
same,EC50,[1],3.55 µM
O=C(C[C@@H]1CN2CCC1CC2)N1CCc2ccccc2[C@H]1c1cccc(F)c1 [Compound 1063],EC50,[2],> 10 µM
same,EC50,[4],> 10 µM
O=C(O[C@@H]1CN2CCC1CC2)N1CCc2ccccc2[C@H]1c1ccc(OC2CC2)cc1 [Compound 1023],EC50,[5],9.53 µM
same,EC50,[6],6.33 µM
O=C(C[C@@H]1CN2CCC1CC2)N1CCc2ccccc2[C@H]1c1ccc(-n2cncn2)cc1 [Compound 1055],EC50,[2],> 10 µM
O=C(O[C@@H]1CN2CCC1CC2)N1CCc2ccccc2[C@H]1COc1ccc(F)cc1 [Compound 1135],EC50,[1],> 10 µM
O=C(N[C@@H]1CN2CCC1CC2)N1CCc2ccccc2[C@@H]1c1ccc2cncn2c1 [Compound 1111],EC50,[2],9.91 µM
same,EC50,[4],> 10 µM
O=C(N[C@@H]1CN2CCC1CC2)N1CCc2ccccc2[C@@H]1c1ccc(-n2ccnc2)cc1 [Compound 1095],EC50,[2],> 10 µM
O=C(N[C@@H]1CN2CCC1CC2)N1CCc2ccccc2[C@@H]1c1ccc(F)c(F)c1 [Compound 1075],EC50,[2],0.19 µM
O=C(C[C@@H]1CN2CCC1CC2)N1CCc2ccccc2[C@H]1c1ccc(F)cc1 [Compound 1059],EC50,[5],> 10 µM
O=C(N[C@@H]1CN2CCC1CC2)N1CCc2ccccc2[C@H]1c1cccc(F)c1 [Compound 1110],EC50,[2],6.19 µM
same,EC50,[4],> 10 µM
O=C(O[C@@H]1CN2CCC1CC2)N1Cc2ccccc2[C@@H]1c1ccccc1 [Compound 1044],EC50,[6],> 10 µM
O=C(C[C@@H]1CN2CCC1CC2)N1CCc2ccccc2[C@H]1c1ccc(F)c(F)c1 [Compound 1065],EC50,[2],> 10 µM
same,EC50,[4],> 10 µM
O=C(O[C@@H]1CN2CCC1CC2)N1CCc2ccccc2[C@H]1c1ccc(F)cc1F [Compound 1013],EC50,[3],> 10 µM
same,EC50,[1],1.75 µM
COc1ccc([C@@H]2c3ccccc3CCN2C(=O)N[C@@H]2CN3CCC2CC3)cc1 [Compound 1074],EC50,[2],> 10 µM
O=C1CCCN1c1ccc([C@@H]2c3ccccc3CCN2C(=O)N[C@@H]2CN3CCC2CC3)cc1 [Compound 1120],EC50,[2],> 10 µM
same,EC50,[4],> 10 µM
O=C(O[C@@H]1CN2CCC1CC2)N1CCc2ccccc2[C@H]1c1cc(F)cc(F)c1 [Compound 1041],EC50,[1],> 10 µM
